Measurements reported in patent EP3985010A1, “SPIROCYCLIC INHIBITORS OF HEPATITIS B VIRUS” (priority 2020, dated 2022).

tested on: HBV; assay: Anti-HBV activity in vitro: quantification of extracellular HBV DNA by direct qPCR in HepAD38 cells; assay type: cell-based; conditions: Hepatitis B virus, doxycycline-free medium, 96 hours at 37°C, 8-point dose-response curve, read-out: HBV inh EC50
Text: HepAD38 cell line (Ladner et al., Antimicrob Agents Chemother, 1997, 41, 1715-20) was used for HBV inhibition assays. HepAD38 is a subclone, derived from hepatoblastoma cell line HepG2 (ATCC® Number: HB-8065™), that expresses HBV genome under the transcriptional control of a tetracycline-responsive promoter in a TET-OFF system: addition of doxycycline, an antibiotic belonging to the class of tetracycline, suppresses HBV replication, while its removal switches on the process allowing HBV viral particles release in the cell supernatant. HepAD38 cell line is maintained in DMEM/F12, supplemented with 10% of fetal bovine serum, 1% of glutamine, 1% of penicillin/streptomycin, 0.4 mg/ml G418 and 0,3 ug/ml tetracycline. For the HBV inhibition assay, doxycycline-free medium is used in order to allow virion production.
HBV inhibition activity in vitro was performed in 96 multiwell plates. During the initial (primary) screening, compounds were first tested in triplicates at concentrations of 0.02 µM, 0.1µM, 0.5µM and 1µM. For selected compounds, an 8-point dose-response curve was obtained using 1:2 serial dilutions (starting from 0.01µM, 0.1µM, 0.4µM or 5 µM, depending on the degree of inhibition observed during the primary screening). From the dose-response curves, half maximal effective concentration (EC50) could be calculated (see also below).
In more detail, compounds - typically dissolved in DMSO stock solutions - were diluted to 2x the final desired concentration in 100 µl of the above medium (without doxycycline) and plated in three replicates in the 96-well plates.
Simultaneously, HepAD38 cells - extensively pre-washed in doxycycline-free medium in order to induce HBV production - were suspended at 2^∗10^4 cells in 100 µl of doxycycline-free medium and added to each well of the plate, to yield a final assay volume of 200 µl DMSO - used for stock solutions and compounds dilutions - which was always present in the assays at a final concentration of 0.5%.
Plates were then incubated 96 hours at 37°C and then subjected to cell viability assays and extracellular HBV quantification, in order to evaluate both the cytotoxic potential and the antiviral activity of compounds. Cytotoxicity was assessed by a commercial fluorescence assay that measures the metabolic activity of cells, directly related to cell viability (Cell Titer Blue, Promega). Anti-HBV activity was evaluated by quantification of extracellular HBV DNA with direct qPCR. In particular, supernatant was collected and centrifuged for cell debris clarification, viral DNA was extracted from virions by addition of lysis buffer (1 mM 1,4-dithiothreitol, 0.2% sodium dodecyl sulphate) and incubated at 95°C for 10 min. Samples were then diluted 1:40 and real time PCR amplification was performed with SYBR green assay (Power SYBR™ Green PCR Master Mix-Thermo Fisher Scientific) and specific HBV primer (HBV-DF:5'-[…]-3' (SEQ ID No. 1), HBV-DR:5'-[…]-3' (SEQ ID No. 2)).
Antiviral activity data for each compound are reported as EC50 value (see Table 1 legend). Excel and Graphpad Prism programs are typically used for data elaboration and EC50 calculation.

Structure (SMILES) | EC50 [µM]
C[C@H](NC(=O)C(=O)N1CCC2(CC1)COc1c(cn(C)c1C(=O)Nc1ccc(F)c(C(F)F)c1)S(=O)(=O)N2)C(F)(F)F [Example E14, (S)-N-(3-(difluoromethyl)-4-fluorophenyl)-7'-methyl-1-(2-oxo-2-((1,1,1-trifluoropropan-2-yl)amino)acetyl)-2'H,4'H,7'H-spiro[piperidine-4,3'-pyrrolo[3,4-b][1,4,5]oxathiazepine]-6'-carboxamide 1',1'-dioxide] | < 0.5
C[C@@H](NC(=O)C(=O)N1CC[C@@]2(COc3c(cn(C)c3C(=O)Nc3ccc(F)c(Cl)c3)S(=O)(=O)N2)C1)C(F)(F)F [Example E5, (S)-N-(3-chloro-4-fluorophenyl)-7'-methyl-1-(2-oxo-2-(((R)-1,1,1-trifluoropropan-2-yl)amino)acetyl)-2'H,4'H,7'H-spiro[pyrrolidine-3,3'-pyrrolo[3,4-b][1,4,5]oxathiazepine]-6'-carboxamide 1',1'-dioxide] | < 0.5
Cn1cc2c(c1C(=O)Nc1ccc(F)c(Cl)c1)OCC1(CCN(C(=O)C(=O)NCC(F)(F)F)CC1)NS2(=O)=O [Example E13, N-(3-chloro-4-fluorophenyl)-7'-methyl-1-(2-oxo-2-((2,2,2-trifluoroethyl)amino)acetyl)-2'H,4'H,7'H-spiro[piperidine-4,3'-pyrrolo[3,4-b][1,4,5]oxathiazepine]-6'-carboxamide 1',1'-dioxide] | < 0.5
Cn1cc2c(c1C(=O)Nc1ccc(F)c(C(F)F)c1)OC[C@]1(CCN(C(=O)C(=O)NC(C)(C)C(F)(F)F)C1)NS2(=O)=O [Example E24, (R)-N-(3-(difluoromethyl)-4-fluorophenyl)-7'-methyl-1-(2-oxo-2-((1,1,1-trifluoro-2-methylpropan-2-yl)amino)acetyl)-2'H,4'H,7'H-spiro[pyrrolidine-3,3'-pyrrolo[3,4-b][1,4,5]oxathiazepine]-6'-carboxamide 1',1'-dioxide] | < 0.5
C[C@@H](NC(=O)C(=O)N1CC2(COc3c(cn(C)c3C(=O)Nc3ccc(F)c(C(F)F)c3)S(=O)(=O)N2)C1)C(F)(F)F [Example E10, (R)-N-(3-(difluoromethyl)-4-fluorophenyl)-7'-methyl-1-(2-oxo-2-((1,1,1-trifluoropropan-2-yl)amino)acetyl)-2'H,4'H,7'H-spiro[azetidine-3,3'-pyrrolo[3,4-b][1,4,5]oxathiazepine]-6'-carboxamide 1',1'-dioxide] | < 0.5
C[C@@H](NC(=O)C(=O)N1CC2(COc3c(c(Cl)n(C)c3C(=O)Nc3ccc(F)c(C(F)F)c3)S(=O)(=O)N2)C1)C(F)(F)F [Example E32, (R)-8'-chloro-N-(3-(difluoromethyl)-4-fluorophenyl)-7'-methyl-1-(2-oxo-2-((1,1,1-trifluoropropan-2-yl)amino)acetyl)-2'H,4'H,7'H-spiro[azetidine-3,3'-pyrrolo[3,4-b][1,4,5]oxathiazepine]-6'-carboxamide 1',1'-dioxide] | < 0.5
C[C@@H](NC(=O)C(=O)N1CC[C@]2(COc3c(cn(C)c3C(=O)Nc3ccc(F)c(C(F)F)c3)S(=O)(=O)N2)C1)C(F)(F)F [Example E6, (R)-N-(3-(difluoromethyl)-4-fluorophenyl)-7'-methyl-1-(2-oxo-2-(((R)-1,1,1-trifluoropropan-2-yl)amino)acetyl)-2'H,4'H,7'H-spiro[pyrrolidine-3,3'-pyrrolo[3,4-b][1,4,5]oxathiazepine]-6'-carboxamide 1',1'-dioxide] | < 0.5
C[C@H](NC(=O)C(=O)N1CC2(COc3c(cn(C)c3C(=O)Nc3ccc(F)c(C(F)F)c3)S(=O)(=O)N2)C1)C(F)(F)F [Example E18, (S)-N-(3-(difluoromethyl)-4-fluorophenyl)-7'-methyl-1-(2-oxo-2-((1,1,1-trifluoropropan-2-yl)amino)acetyl)-2'H,4'H,7'H-spiro[azetidine-3,3'-pyrrolo[3,4-b][1,4,5]oxathiazepine]-6'-carboxamide 1',1'-dioxide] | < 0.5
C[C@@H](NC(=O)C(=O)N1CCC2(COc3c(cn(C)c3C(=O)Nc3ccc(F)c(F)c3)S(=O)(=O)N2)C1)C(F)(F)F (stereo partly drawn) [Example E1, N-(3,4-difluorophenyl)-7'-methyl-1-(2-oxo-2-(((R)-1,1,1-trifluoropropan-2-yl)amino)acetyl)-2'H,4'H,7'H-spiro[pyrrolidine-3,3'-pyrrolo[3,4-b][1,4,5]oxathiazepine]-6'-carboxamide 1',1'-dioxide] | < 0.5
C[C@H](NC(=O)C(=O)N1CCC2(CC1)COc1c(cn(C)c1C(=O)Nc1ccc(F)c(Cl)c1)S(=O)(=O)N2)C(F)(F)F [Example E12, (S)-N-(3-chloro-4-fluorophenyl)-7'-methyl-1-(2-oxo-2-((1,1,1-trifluoropropan-2-yl)amino)acetyl)-2'H,4'H,7'H-spiro[piperidine-4,3'-pyrrolo[3,4-b][1,4,5]oxathiazepine]-6'-carboxamide 1',1'-dioxide] | < 0.5
Cn1cc2c(c1C(=O)Nc1ccc(F)c(C(F)F)c1)OCC1(CCN(C(=O)C(=O)NC(C)(C)C(F)(F)F)CC1)NS2(=O)=O [Example E15, N-(3-(difluoromethyl)-4-fluorophenyl)-7'-methyl-1-(2-oxo-2-((1,1,1-trifluoro-2-methylpropan-2-yl)amino)acetyl)-2'H,4'H,7'H-spiro[piperidine-4,3'-pyrrolo[3,4-b][1,4,5]oxathiazepine]-6'-carboxamide 1',1'-dioxide] | < 0.5
Cn1cc2c(c1C(=O)Nc1ccc(F)c(C(F)F)c1)OCC1(CN(C(=O)C(=O)NC3CC3)C1)NS2(=O)=O [Example E19, 1-(2-(cyclopropylamino)-2-oxoacetyl)-N-(3-(difluoromethyl)-4-fluorophenyl)-7'-methyl-2'H,4'H,7'H-spiro[azetidine-3,3'-pyrrolo[3,4-b][1,4,5]oxathiazepine]-6'-carboxamide 1',1'-dioxide] | < 0.5
Cn1cc2c(c1C(=O)Nc1ccc(F)c(C(F)F)c1)OC[C@@]1(CCN(C(=O)C(=O)NCC(F)(F)F)C1)NS2(=O)=O [Example E27, (S)-N-(3-(difluoromethyl)-4-fluorophenyl)-7'-methyl-1-(2-oxo-2-((2,2,2-trifluoroethyl)amino)acetyl)-2'H,4'H,7'H-spiro[pyrrolidine-3,3'-pyrrolo[3,4-b][1,4,5]oxathiazepine]-6'-carboxamide 1',1'-dioxide] | < 0.5
C[C@@H](NC(=O)C(=O)N1CCC2(COc3c(c(Cl)n(C)c3C(=O)Nc3ccc(F)c(F)c3)S(=O)(=O)N2)C1)C(F)(F)F (stereo partly drawn) [Example E3, 8'-chloro-N-(3,4-difluorophenyl)-7'-methyl-1-(2-oxo-2-(((R)-1,1,1-trifluoropropan-2-yl)amino)acetyl)-2'H,4'H,7'H-spiro[pyrrolidine-3,3'-pyrrolo[3,4-b][1,4,5]oxathiazepine]-6'-carboxamide 1',1'-dioxide] | < 0.5
C[C@H](NC(=O)C(=O)N1CC[C@]2(COc3c(cn(C)c3C(=O)Nc3ccc(F)c(Cl)c3)S(=O)(=O)N2)C1)C(F)(F)F [Example E22, (R)-N-(3-chloro-4-fluorophenyl)-7'-methyl-1-(2-oxo-2-(((S)-1,1,1-trifluoropropan-2-yl)amino)acetyl)-2'H,4'H,7'H-spiro[pyrrolidine-3,3'-pyrrolo[3,4-b][1,4,5]oxathiazepine]-6'-carboxamide 1',1'-dioxide] | < 0.5
Cn1cc2c(c1C(=O)Nc1ccc(F)c(Cl)c1)OCC1(CN(C(=O)C(=O)N3CC(F)(F)C3)C1)NS2(=O)=O [Example E17, N-(3-chloro-4-fluorophenyl)-1-(2-(3,3-difluoroazetidin-1-yl)-2-oxoacetyl)-7'-methyl-2'H,4'H,7'H-spiro[azetidine-3,3'-pyrrolo[3,4-b][1,4,5]oxathiazepine]-6'-carboxamide 1',1'-dioxide] | < 0.5
